Experimental data reported in patent publication US8992783B2, “Process for enantioseparation of chiral systems with compound formation using two subsequent crystallization steps” (Max-Planck-Gessellschaft zur Förderung der Wissenschaften …, priority 2008, dated 2015).
Like-named read-outs stand apart in the source and are kept apart here.

Conditions: methionine enantiomers in water

- Solubility at eutectic composition (274.15 K): ′ 3.83 wt %
- Solubility at eutectic composition (333.15 K): ′ 9.38 wt %
Compound: CSCC[C@H](N)C(=O)O (racemic) [methionine]
